For assay [1], the system named is RT dimerization. The settings on record: yeast-two hybrid; cited from earlier work.
The subject of assay [2] is RT subunit interactions. The settings on record: cited from earlier work.
Assay [3] concerns RT dimerization. The settings on record: urea denaturation; cited from earlier work.
Assay [4] has as its target p66 (Human immunodeficiency virus type 1 group M subtype B, UniProt P04585). Further details: species or system HIV-1. The settings on record: 3 μM p66, 25 μM NNRTI, 1 wk.
Assay [5] deals with p51/p51. To be noted: cited from earlier work.
Assay [6] concerns p66/p66. The settings on record: cited from earlier work.

We go through six compounds from article PMC2896556 (Biochemistry, 2010).

The structures appear in SMILES notation. Read-outs that look alike come from different tables or passages of the source.

For `Cc1ccnc2c1NC(=O)c1cccnc1N2C1CC1` [nevirapine], the “effect on RT dimerization” value is listed as “small enhancement of dimerization” in assay [1] and “no effect” in assay [3]. Further, the “effect on RT subunit interactions” value in assay [2] was “enhance subunit interactions”. Also, the “effect on p66 dimerization” value in assay [4] was “enhance dimerization”.
Take `CC(C)(C)c1ccc(C(=O)NN=Cc2c(O)ccc3ccccc23)cc1` [BBNH, N-(4-tert-butylbenzoyl)-2-hydroxy-1-naphthaldehyde hydrazone]: the “effect on RT subunit interactions” value in assay [2] is on record as “weaken subunit interactions”.
Regarding `O=C1Nc2ccc(Cl)cc2[C@@](C#CC2CC2)(C(F)(F)F)O1` [efavirenz], the “enhancement of dimer formation” value was 600 fold in assay [5] and 50 fold in assay [6]. In addition, in assay [2], the “effect on RT subunit interactions” value is listed as “enhance subunit interactions”.
As to `CCn1c(=O)c(C)cn([C@@H]2O[C@H](CO[Si](C)(C)C(C)(C)C)C3(OS(=O)(=O)C=C3N)[C@H]2O[Si](C)(C)C(C)(C)C)c1=O` (stereo partly drawn) [TSAOe^3T, 1-(spiro{4”-amino-2”,2”-dioxo-1”,2”-oxathiole-5”,3′-[2′,5′-bis-O-(tert-butyldimethylsilyl)-β-D-ribofuranosyl]})-3-ethylthymine], the “effect on RT subunit interactions” value in assay [2] is “weaken subunit interactions”.
For `CC(C)Nc1cccnc1N1CCN(C(=O)c2cc3cc(NS(C)(=O)=O)ccc3[nH]2)CC1` [delavirdine], the “effect on RT subunit interactions” value in assay [2] is given as “little or no effect”.
Take `CC(C)(C)c1ccc(C(=O)NN=Cc2ccccc2O)cc1` [BBSH, (4-tert-butylbenzoyl)-2-hydroxy-1-salicylyl hydrazone]: the “effect on RT subunit interactions” value in assay [2] is on record as “weaken subunit interactions”.
